Data set [1] has as its system SD rats. As to conditions: rat, in vivo; for MLD: iv.
For data set [2], the system named is SD rats. Nature of the data set: animal or person. As to conditions: rat, in vivo, iv. The data set is classed as in vivo.

The record followed here is patent EP4711368A1 (priority 2023, dated 2024).

Each structure is given as a SMILES string.
Wherever Onset time is given: test concentration or dose not given here.
Wherever Righting feflex duration is given: test concentration or dose not given here.
Wherever Sedation Duration is given: test concentration or dose not given here.

Take `COC(=O)CC1N=C(c2ccccn2)c2cc(Br)ccc2N(C)C1=O` (centres unmarked) [Compound 113]: in data set [1], the TI was found to be 2.7 and the MLD is 40 mg/kg. Moreover, in data set [2], the “Minimal effective anesthetic dose” value worked out at 15.0 mg/kg, the Onset time lay in the range of 0.2 to 0.3 min, the Righting feflex duration is 0.7 to 29.5 min and the “Sedation Duration” value was in the range of 20.6 to 77.7 min.

In data set [1], `CC(C)OC(=O)CC1N=C(c2ccccn2)c2cc(Br)ccc2N(C)C1=O` (centres unmarked) [Compound 114] displayed a TI of 40.0 and an MLD of 20 mg/kg. In data set [2], the “Minimal effective anesthetic dose” value is recorded as 0.5 mg/kg, the Onset time lay within 0.4 to 1.1 min, the Righting feflex duration fell in the range of 0.8 to 27.6 min and the “Sedation Duration” value lay in the range of 16.5 to 140.3 min.

In data set [1], `CC(=O)OCCC1N=C(c2ccccn2)c2cc(Br)ccc2N(C)C1=O` (centres unmarked) [Compound 115] returned a TI of 16 and an MLD of 40 mg/kg. In data set [2], the “Minimal effective anesthetic dose” value worked out at 2.5 mg/kg, the Onset time is 0.2 to 0.4 min, the Righting feflex duration fell in the range of 4.9 to 14.1 min and the “Sedation Duration” value fell in the range of 12.4 to 56.0 min.

With `CN1C(=O)C(CCO)N=C(c2ccccn2)c2cc(Br)ccc21` (centres unmarked) [Compound 117], in data set [1], the TI was 1.6 and the MLD is on record as 40 mg/kg. Besides, in data set [2], the “Minimal effective anesthetic dose” value is 25.0 mg/kg, the Onset time lay in the range of 0.4 to 0.5 min, the Righting feflex duration fell in the range of 2.7 to 3.8 min and the “Sedation Duration” value is 14.6 to 32.0 min.

For the compound `CC(=O)OCCC1N=C(c2ccccn2)c2cc(Br)ccc2-n2c(C)cnc21.O=S(=O)(O)c1ccccc1` (centres unmarked) [Compound 145D], in data set [1], the TI is above 2.3 and the MLD is reported as above 16.9 mg/kg. Further, in data set [2], the “Minimal effective anesthetic dose” value worked out at 7.5 mg/kg, the Onset time fell in the range of 0.2 to 0.5 min, the Righting feflex duration is 1.7 to 19.9 min and the “Sedation Duration” value lay within 23.0 to 63.0 min.

In data set [1], `CC(=O)OCCC1N=C(c2ccccn2)c2cc(Br)ccc2-n2c(C)cnc21` (centres unmarked) [Compound 145] showed a TI of 6.0 and an MLD of 30 mg/kg. Besides, in data set [2], the “Minimal effective analgesic dose” value is reported as 20 mg/kg, the “Minimal effective anesthetic dose” value was 5.0 mg/kg, the Onset time is 0.2 to 0.4 min and the Righting feflex duration lay within 0.5 to 14.3 min. In addition, the “Sedation Duration” value in data set [2] was 33.1 to 88.2 min.

In data set [1], `Cc1cnc2n1-c1ccc(Br)cc1C(c1ccccn1)=NC2CCOC(=O)C(C)C` (centres unmarked) [Compound 146] displayed a TI of 5.0 and an MLD of 5 mg/kg. Further, in data set [2], the “Minimal effective anesthetic dose” value is recorded as 1.0 mg/kg, the Onset time fell in the range of 0.3 to 0.6 min, the Righting feflex duration was in the range of 3.7 to 9.7 min and the “Sedation Duration” value fell in the range of 17.3 to 27.1 min.

As to `CCC(=O)OCCC1N=C(c2ccccn2)c2cc(Br)ccc2-n2c(C)cnc21` (centres unmarked) [Compound 147], in data set [1], the TI turned out to be 6.0 and the MLD came out at 15 mg/kg. In data set [2], the “Minimal effective anesthetic dose” value is on record as 2.5 mg/kg, the Onset time is 0.2 to 0.5 min and the “Sedation Duration” value fell in the range of 27.0 to 48.7 min.

In data set [1], `Cc1cnc2n1-c1ccc(Br)cc1C(c1ccccn1)=NC2CCOC(=O)CCl` (centres unmarked) [Compound 148] returned a TI of 33.3 and an MLD of 60 mg/kg. In addition, in data set [2], the “Minimal effective anesthetic dose” value is 1.8 mg/kg, the Onset time was in the range of 0.2 to 1.1 min, the Righting feflex duration fell in the range of 1.0 to 60.8 min and the “Sedation Duration” value was 20.1 to 82.4 min.

In data set [1], `Cc1cnc2n1-c1ccc(Br)cc1C(c1ccccn1)=NC2CCOC(=O)CCCl` (centres unmarked) [Compound 150] had a TI of 5.5 and an MLD of 13.7 mg/kg. For the same compound, in data set [2], the “Minimal effective anesthetic dose” value was found to be 2.5 mg/kg, the Onset time lay in the range of 0.2 to 0.4 min, the Righting feflex duration is 0.8 to 13.5 min and the “Sedation Duration” value was in the range of 16.9 to 33.9 min.

Regarding `C=CC(=O)OCCC1N=C(c2ccccn2)c2cc(Br)ccc2-n2c(C)cnc21` (centres unmarked) [Compound 151], in data set [1], the TI turned out to be 16.3 and the MLD is 29.4 mg/kg. Moreover, in data set [2], the “Minimal effective anesthetic dose” value is reported as 1.8 mg/kg, the Onset time lay within 0.2 to 3.4 min, the Righting feflex duration was 3.7 to 38.6 min and the “Sedation Duration” value lay within 19.0 to 68.4 min.

In data set [1], `Cc1cnc2n1-c1ccc(Br)cc1C(c1ccccn1)=NC2CCOC(=O)C1COC1` (centres unmarked) [Compound 153] yielded a TI of 2.7 and an MLD of 20 mg/kg. Further, in data set [2], the “Minimal effective anesthetic dose” value came out at 7.5 mg/kg, the Onset time is 0.3 to 0.4 min, the Righting feflex duration was in the range of 2.9 to 5.8 min and the “Sedation Duration” value fell in the range of 20.0 to 21.9 min.

Turning to `CCOC(=O)OCCC1N=C(c2ccccn2)c2cc(Br)ccc2-n2c(C)cnc21` (centres unmarked) [Compound 154], in data set [1], the TI was 2.0 and the MLD came to 7.5 mg/kg. Besides, in data set [2], the “Minimal effective anesthetic dose” value is 3.8 mg/kg, the Onset time was 0.5 to 0.9 min, the Righting feflex duration was 1.3 to 6.2 min and the “Sedation Duration” value was 14.1 to 17.0 min.

With `Cc1cnc2n1-c1ccc(Br)cc1C(c1ccccn1)=NC2CCOC(=O)N(C)C.O=S(=O)(O)c1ccccc1` (centres unmarked) [Compound 156D], in data set [1], the TI was above 1.5 and the MLD is on record as above 7.5 mg/kg. Besides, in data set [2], the “Minimal effective anesthetic dose” value amounted to 5.0 mg/kg, the Onset time lay in the range of 0.2 to 0.6 min, the Righting feflex duration lay within 0.6 to 10.9 min and the “Sedation Duration” value is 12.8 to 36.9 min.

Regarding `Cc1cnc2n1-c1ccc(Br)cc1C(c1ccccn1)=NC2CCOC(=O)N(C)C` (centres unmarked) [Compound 156], in data set [1], the TI stood at 11.1 and the MLD stood at 20 mg/kg. Besides, in data set [2], the “Minimal effective anesthetic dose” value is listed as 1.8 mg/kg, the Onset time fell in the range of 0.2 to 0.4 min, the Righting feflex duration fell in the range of 1.7 to 31.9 min and the “Sedation Duration” value is 9.3 to 91.5 min.

`CC(=O)OC1N=C(c2ccccn2)c2cc(Br)ccc2N(C)C1=O` (centres unmarked) [Compound 164]: in data set [1], the TI is 8.0 and the MLD is given as 40 mg/kg. Moreover, in data set [2], the “Minimal effective anesthetic dose” value was determined as 5.0 mg/kg, the Onset time was 0.2 to 1.0 min, the Righting feflex duration is 1.2 to 50.4 min and the “Sedation Duration” value was 116.7 to 284.0 min.

As for `CC(C)OC(=O)OC1N=C(c2ccccn2)c2cc(Br)ccc2N(C)C1=O` (centres unmarked) [Compound 166], in data set [1], the TI is 2.0 and the MLD came out at 38.9 mg/kg. In data set [2], the “Minimal effective analgesic dose” value was 20 mg/kg, the “Minimal effective anesthetic dose” value was found to be 20.0 mg/kg, the Onset time was found to be 0.4 min and the Righting feflex duration came to 20.7 min. The “Sedation Duration” value in data set [2] came to 64.0 min.

For the compound `CC(C)OC(=O)CCC1N=C(c2ccccn2)c2cc3nc(C(F)(F)F)sc3cc2N(C)C1=O` (centres unmarked) [Compound 181], in data set [1], the TI is above 1.0 and the MLD is above 40 mg/kg. In addition, in data set [2], the “Minimal effective analgesic dose” value is 40 mg/kg, the “Minimal effective anesthetic dose” value is reported as 40.0 mg/kg, the Onset time is listed as 0.8 min and the Righting feflex duration came out at 7.8 min. Moreover, in data set [2], the “Sedation Duration” value turned out to be 53.0 min.
